Results on 5 substances are retold here after patent US5081031A, “Synthetic polypeptide with type IV collagen activity” (Regents of the University of Minnesota, priority 1989, dated 1992).

“Also recorded” adds a separate entry of the source.

For assay [1], the target named is T1, binding of heparin to peptide Hep-II (Homo sapiens, UniProt P08572).
T1 construct: made in house; host or cells: chemical solid-phase (Merrifield) synthesis, no expression host
As to the kind of experiment: Heparin/peptide interaction specificity: competition of 3H-heparin binding to coated peptide Hep-II by glycosaminoglycans. Particulars: Hep-II coated from 500 μg/ml; 3H-heparin 50,000 cpm per well; 2 h 37° C. As to the method:
To check the specificity of the interaction between heparin and peptide Hep-II or whether the heparin structure was also critical to this interaction, heparin along with other sulfated glucosaminoglycans, dextran and chondroitin sulfate were used in competition experiments. A standard amount of 50 μg of a solution containing 500 μg/ml of peptide Hep-II was coated on 96-well plates as described above. Wells were treated for two hours with 2 mg/ml BSA in wash buffer. Then, a final volume of 50 μl was added to each well, containing a standard amount of […] (50,000 cpm per well) and various amounts of non-radioactive heparin, dextran or chondroitin sulfate. After incubating for two hours at 37° C., the wells were washed and radioactivity was counted as described above in Example 1.

Assay [2] concerns binding of heparin to type IV collagen. In words: Inhibition of heparin binding to type IV collagen coated on plastic by peptide in solution. Particulars: peptide in solution 0.5 mg/ml to 5 μg/ml; 3H-heparin 500 ng per well; type IV collagen coated at 60 μg/ml. As to the method: Peptide Hep-II in solution (and not absorbed to plastic), was screened for the ability to inhibit the binding of heparin to intact, native type IV collagen coated on plastic. This experimental approach avoids problems due to differential coating of peptides in heparin binding assays. Type IV collagen at 60 μg/ml in PBS was coated on 96-well plates, using 50 μl per well and dried overnight at 28° C. The wells were then treated for two hours with 2 mg/ml BSA in wash buffer (described above in Example 1). Peptide Hep-II at various dilutions ranging from 0.5 mg/ml to 5 μg/ml in PBS and CHAPS (cholamido-propyl-dimethyl-ammonio-propane-sulfonate) (a detergent used to avoid non-specific sticking) was co-incubated with a standard amount of ^3 H-heparin (500 ng per well […] final concentration) for two hours at 37° C. and the mixture was then transferred to the […] coated plate (50 μl ) and allowed to incubate for another two hours at 37° C. The wells were then washed and radioactivity was counted as described above. […] Peptide Hep-I is also shown in comparison.

In assay [3] the test system is bovine aortic endothelial cells. In words: Direct adhesion of endothelial cells to peptide-coated plastic. The assay is classed as cell-based. Particulars: 35S-labeled cells, 120 min. at 37° C.; increasing coating concentrations. As to the method:
Bovine aortic endothelial cells were isolated according to the following protocol. Aortas were obtained from a local slaughterhouse, washed in cold phosphate buffered saline (PBS) (136 mM NaCl, 2.6 mM KCl, 15.2 mM Na2 HPO4, pH 7.2) and processed within 2 hours. Crude collagenase (CLS III, 125-145 units per mg dry weight, Cooper Biomedical) was used at 2 mg/ml in Dulbecco's modified Eagle's medium (DMEM) (GIBCO). The vessel was clamped at the distal end, filled with the collagenase-PBS solution and digestion was carried out for 10 minutes. The lumenal contents were harvested, followed by the addition of fresh collagenase for two additional 10-minute periods. The enzyme-cell suspensions were added to an equal volume of DMEM containing 10% fetal bovine serum (FBS) to inhibit the enzyme and spun in a centrifuge at 400× g for 10 minutes. The resulting cell pellet was resuspended in DMEM containing 10% FBS, 100 units/ml of penicillin G, 100 μg/ml of streptomycin and 100 μg/ml of crude fibroblast growth factor. Cells are cultured in 75 cm^2 flasks in a humidified 5% CO2 atmosphere at 37° C. Cultures were fed twice a week with the same medium and cells were used in assays when approximately 75% confluent. […] At the end of the incubation period the wells were washed, bound radioactivity was solubilized by 1% SDS-0.5 N NaOH and quantitated in a Beckman scintillation counter. […]

Assay [4] can be described thus: Heparin binding to plastic plates coated with peptide (3H-heparin direct binding). As for the experimental part:
The ability of the synthesized peptide Hep-II to interact with heparin when coated on 96-well plastic plates was evaluated. Stock solutions of peptide Hep-II at a concentration of 500 μg/ml were prepared in phosphate-buffered saline containing 0.02% sodium azide. Fifty μl from each concentration was coated on the 96-well plates and left to dry overnight at 28° C. Then, wells were treated for two hours with […] of 2 mg/ml BSA and 6 mM phosphate, 10 mM NaCl, 68 μM CaCl2, pH 6.8 (wash buffer) in order to minimize non-specific binding. Next 50 μl of ^3 H-heparin (10 μg/ml) was added at increasing concentrations (0 to 1400 ng/well) for two hours at 37° C. The wells were then washed three times with wash buffer containing 0.05% Triton X-100 and finally they were incubated for thirty minutes at 60° C. with 200 μl of 0.5 N NaOH and 1% SDS. The amount of ^3 H-heparin bound at each concentration was quantitated with a Beckman LS-3801 liquid scintillation counter. […] Comparison with data obtained in the past using exactly the same methodology indicate that peptide Hep-II is at least 10 times stronger than peptide Hep-I (see FIG. 3B) and about 100 times stronger than type IV collagen, when used in the same coating concentrations.

Assay [5] deals with melanoma and endothelial cells. As to the kind of experiment: Promotion of cell adhesion and spreading (summary statements). The assay is classed as cell-based. Particulars: many cell types, including melanoma and endothelial cells.
Assay [6] relates to endothelial cells. As to the kind of experiment: Direct binding of 125I-labeled peptide Hep-II to cell surfaces. Further details: species or system bovine. Particulars: about 5,000 cells, 15 min. at 4° C., increasing concentrations. As to the method:
Endothelial cells were grown in culture as described in example 4 (supra). Cells used for this type of experiment were not labeled with radioactivity. Unlabeled cells were harvested by trypsinization (supra) on the day of the experiment. About 5,000 cells were mixed with 50 μl of a given concentration of peptide Hep-II in solution. Increasing concentrations of peptide Hep-II were used. The cells were incubated with the iodinated peptide for 15 min. at 4° C. and they were then pelleted by centrifugation. The cells were then resuspended and washed 3 times with DMEM containing 2 mg/ml BSA and 50 mM Hepes. Following the washes, the cells were pelleted for a final time in plastic tubes, the supernatant was decanted and the radioactivity of the pellet was quantitated in a Beckman scintillation counter. The binding of peptide Hep-II to endothelial cells is saturable (FIG. 8)----an indication of specificity. These experiments indicate that peptide Hep-II specifically interacts with the surfaces of endothelial cells.

Assay [7] relates to endothelial cells. As to the kind of experiment: Inhibition of the binding of 125I-labeled peptide Hep-II to the cell surface by excess unlabeled peptide. Further details: species or system bovine. Particulars: unlabeled peptide up to 500-fold excess; 15 min. at 4° C. As to the method:
Endothelial cells were grown in culture as discussed in examples 4 and 5A (supra). On the day of the experiment, the cells were harvested by trypsinization (supra) and were co-incubated with 50 μl of peptide Hep-II. 50 μl a constant amount of ^125 I-labeled peptide Hep-II was mixed with increasing concentrations of unlabeled peptide Hep-II or a control peptide (maximal excess of unlabeled peptide: 500-fold over radiolabeled Hep-II). 50 μl of each concentration of unlabeled peptide which was mixed with radiolabeled Hep-II were then added to cells in suspension (5,000 cells per concentration of peptide). The cells were incubated with the mixture of unlabeled-radiolabeled peptide for 15 min. at 4° C. and they were then pelleted. The cells were subsequently washed and bound radioactivity was quantitated as described in example 4. […] These experiments provide confirmation that a specific interaction occur between endothelial-cell surfaces and peptide Hep-II.

For assay [8] the following is noted: reported from U.S. Pat. No. 4,876,332; cited from earlier work.
The subject of assay [9] is melanoma and endothelial cells. Particulars: reported from U.S. Pat. No. 4,876,332; cited from earlier work.

Consider dextran, for which the “competition for the binding of tritiated heparin to peptide Hep-II” value (“competition for the binding” below) in assay [1] is on record as “substantially more dextran is needed to achieve similar levels of competition”.

Regarding “leu-ala-gly-ser-cys-leu-ala-arg-phe-ser-thr-met (LAGSCLARFSTM) [Hep-II, type IV collagen residues 49-60 from the carboxyl-terminus of the α2 chain of the NCl domain]”, the “inhibition of heparin binding to type IV collagen” value in [2] is reported as “strong inhibitor of heparin binding to type IV collagen”. For the same substance, in [3], the “adhesion of endothelial cells to coated substrate” value is recorded as “promotes substantial adhesion of endothelial cells even at very low plating concentrations”. Moreover, the “heparin binding to peptide coated on plastic” value in [4] (peptide coated on 96-well plates from 500 μg/ml stock, 3H-heparin 0 to 1400 ng/well, 2 h 37° C.) is listed as “extremely potent promoter of heparin-binding; also recorded: very potent binder of heparin”. The “heparin binding strength relative to type IV collagen” value in assay [4] (same coating concentrations, same methodology) is reported as “about 100 times”. Also, in assay [5], the “promotion of cell adhesion/attachment and spreading” value is “potent promoter of cell adhesion and spreading; also recorded: potent promoter of cell attachment and spreading”. Further, the “binding of 125I-labeled peptide to endothelial cells” value in the assay on endothelial cells [6] is on record as “saturable”. For the same substance, the “competition of the binding of radiolabeled Hep-II to the surface of endothelial cells” value in the assay with endothelial cells [7] is “can be competed only by an excess of unlabeled peptide Hep-II”.

Turning to chondroitin sulfate, in assay [1], the “competition for the binding” value was “cannot mimic this effect except at extremely high concentrations”.

In the case of “thr-ala-gly-ser-cys-leu-arg-lys-phe-ser-thr-met (TAGSCLRKFSTM) [Hep-I, peptide from the NCl domain of the α1(IV) chain, position 49-60 from the carboxyl terminus; U.S. Pat. No. 4,876,332]”, the “heparin binding (earlier U.S. Pat. No. 4,876,332)” value in [8] is “ability to bind heparin”. Besides, in assay [9], the “promotion of cell adhesion (earlier U.S. Pat. No. 4,876,332)” value is “promote cell adhesion”.

For heparin, the “competition for the binding” value in assay [1] was “able to compete for the binding of tritiated heparin to peptide Hep-II at very low concentrations”.
